Measured values as given in patent publication US20250215012A1, “IKZF2 DEGRADERS AND USES THEREOF” (REGENTS OF THE UNIVERSITY OF MICHIGAN, priority 2022, published 2025).

Target: IKZF2 (Homo sapiens (Human), UniProt Q96SW2+Q9UKS7)
Experiment: IKZF2 HiBiT Assay (Jurkat-IKZF2-HiBiT cell line)
Format: cell-based
Settings: Jurkat-IKZF2-HiBiT cells, 24 hours; for DC50: read-out: HiBit assay degradation analysis DC50; for Dmax: read-out: HiBit assay degradation analysis Dmax
Experimental: Degradation of IKZF2 protein is determined by IKZF2 HiBiT assay using the Jurkat-IKZF2-HiBiT (Promega) cell line. Briefly, cells are seeded in culture medium. Compounds are serially diluted in culture medium, and certain volume of the diluted compounds is added to the appropriate well of the plate. After the addition of compounds, the cells are incubated. At the end of treatment, Nano-Glo HiBiT Lytic Detection Reagent (Promega) is added to each well, and then the plates are incubated at room temperature for a certain time period. The luminescent signal is measured using a CALRIOstar plate reader (BMG Labtech). The readings are normalized to the DMSO-treated cells and the IC50 is calculated by nonlinear regression (four parameters sigmoid fitted with variable slope, least squares fit, and no constraint) analysis using the GraphPad Prism 8 software.
Degradation of IKZF2 protein was determined by IKZF2 HiBiT assay using the Jurkat-IKZF2-HiBiT (Promega) cell line. […] Compounds were serially diluted in culture medium, and 20 μl of the diluted compounds were added to the appropriate wells of the plate. After the addition of compounds, the cells were incubated at 37° C. in an atmosphere of 5% CO2 for 24 hours. At the end of treatment, 40 ul of Nano-Glo HiBiT Lytic Detection Reagent (Promega) was added to each well, and then the plates were incubated at room temperature for 10-20 minutes. The luminescent signal was measured using a CALRIOstar plate reader (BMG Labtech). The readings were normalized to the DMSO-treated cells and the IC50 was calculated by nonlinear regression (four parameters sigmoid fitted with variable slope, least squares fit, and no constraint) analysis using the GraphPad Prism 8 software.

Chain of IKZF2 (Q9UKS7 whole entry): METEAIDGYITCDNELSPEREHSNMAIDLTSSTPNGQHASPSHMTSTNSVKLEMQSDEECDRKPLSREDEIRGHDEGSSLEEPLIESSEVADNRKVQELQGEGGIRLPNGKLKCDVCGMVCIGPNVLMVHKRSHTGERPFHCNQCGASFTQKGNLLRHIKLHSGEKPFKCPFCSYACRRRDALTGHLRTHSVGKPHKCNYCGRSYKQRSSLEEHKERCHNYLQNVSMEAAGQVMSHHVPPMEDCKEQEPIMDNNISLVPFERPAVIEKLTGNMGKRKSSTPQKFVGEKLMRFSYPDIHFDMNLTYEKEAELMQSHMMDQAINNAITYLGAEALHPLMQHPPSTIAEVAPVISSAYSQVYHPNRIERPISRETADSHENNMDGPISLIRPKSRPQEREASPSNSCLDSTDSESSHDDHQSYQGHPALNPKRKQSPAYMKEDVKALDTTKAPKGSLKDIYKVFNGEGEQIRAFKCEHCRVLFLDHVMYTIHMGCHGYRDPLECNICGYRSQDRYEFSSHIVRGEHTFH
Chain of IKZF2 (Q96SW2 whole entry): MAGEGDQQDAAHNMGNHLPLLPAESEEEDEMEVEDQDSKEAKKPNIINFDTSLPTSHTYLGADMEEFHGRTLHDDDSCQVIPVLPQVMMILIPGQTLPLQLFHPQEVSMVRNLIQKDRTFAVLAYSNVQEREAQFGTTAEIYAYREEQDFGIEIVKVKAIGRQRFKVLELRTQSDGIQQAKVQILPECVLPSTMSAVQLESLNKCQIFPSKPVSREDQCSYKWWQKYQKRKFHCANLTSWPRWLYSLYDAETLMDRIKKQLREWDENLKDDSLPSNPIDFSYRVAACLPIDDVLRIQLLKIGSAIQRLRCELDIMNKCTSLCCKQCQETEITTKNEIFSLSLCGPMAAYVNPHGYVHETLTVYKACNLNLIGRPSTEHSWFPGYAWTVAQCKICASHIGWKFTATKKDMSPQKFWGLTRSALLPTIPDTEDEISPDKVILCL
Chain of IKZF2 (Q16531 whole entry partner): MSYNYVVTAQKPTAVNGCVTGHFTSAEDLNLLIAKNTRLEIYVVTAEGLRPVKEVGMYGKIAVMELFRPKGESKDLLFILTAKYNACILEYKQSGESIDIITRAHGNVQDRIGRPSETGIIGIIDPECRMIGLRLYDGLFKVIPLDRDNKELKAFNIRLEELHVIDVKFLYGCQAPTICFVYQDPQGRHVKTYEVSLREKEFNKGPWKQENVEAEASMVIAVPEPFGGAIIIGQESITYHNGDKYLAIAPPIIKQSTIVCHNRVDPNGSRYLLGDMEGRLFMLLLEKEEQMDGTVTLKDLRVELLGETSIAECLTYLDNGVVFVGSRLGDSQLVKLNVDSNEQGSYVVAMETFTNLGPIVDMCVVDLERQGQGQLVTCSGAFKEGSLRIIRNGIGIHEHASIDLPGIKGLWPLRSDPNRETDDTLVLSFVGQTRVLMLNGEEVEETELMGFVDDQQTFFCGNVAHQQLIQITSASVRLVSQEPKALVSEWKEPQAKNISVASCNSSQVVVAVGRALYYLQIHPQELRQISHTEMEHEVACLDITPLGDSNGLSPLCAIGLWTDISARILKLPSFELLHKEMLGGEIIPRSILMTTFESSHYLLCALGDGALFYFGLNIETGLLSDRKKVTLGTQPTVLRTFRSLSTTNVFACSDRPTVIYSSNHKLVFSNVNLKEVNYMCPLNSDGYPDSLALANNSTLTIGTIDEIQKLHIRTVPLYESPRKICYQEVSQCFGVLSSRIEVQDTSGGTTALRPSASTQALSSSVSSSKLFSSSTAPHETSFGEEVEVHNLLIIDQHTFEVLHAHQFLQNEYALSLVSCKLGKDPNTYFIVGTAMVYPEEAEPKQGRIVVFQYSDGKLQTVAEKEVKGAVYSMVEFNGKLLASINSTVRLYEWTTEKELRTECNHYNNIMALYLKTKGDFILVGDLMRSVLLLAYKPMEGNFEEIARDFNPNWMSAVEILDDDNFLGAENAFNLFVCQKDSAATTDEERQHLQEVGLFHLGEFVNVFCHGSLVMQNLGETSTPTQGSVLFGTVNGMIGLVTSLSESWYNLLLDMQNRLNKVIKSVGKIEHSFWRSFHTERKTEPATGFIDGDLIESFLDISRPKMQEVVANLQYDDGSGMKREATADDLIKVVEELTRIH

Row | SMILES | DC50 [µM] | Dmax [%]
1 | CCC(c1ccccc1)N1CCC2(CC1)COc1c2ccc2c1CN(C1CCC(=O)NC1=O)C2=O (centres unmarked) [Compound A330, 3-(6-oxo-1′-(1-phenylpropyl)-6,8-dihydro-2H,7H-spiro[furo[2,3-e]isoindole-3,4′-piperidin]-7-yl)piperidine-2,6-dione] | < 0.05 | 60 to 80
2 | O=C1CCC(N2Cc3c(ccc4c3OCC43CCN(Cc4cccc5c4NC(=O)C5)CC3)C2=O)C(=O)N1 (centres unmarked) [Compound A152, 3-(6-oxo-1′-((2-oxoindolin-7-yl)methyl)-6,8-dihydro-2H,7H-spiro[furo[2,3-e]isoindole-3,4′-piperidin]-7-yl)piperidine-2,6-dione] | 0.05 to 0.2 | 60 to 80
3 | O=C1CCC(N2Cc3c(ccc4c3OCC43CCN(Cc4cccc5cccc(F)c45)CC3)C2=O)C(=O)N1 (centres unmarked) [Compound A50, 3-(1′-((8-fluoronaphthalen-1-yl)methyl)-6-oxo-6,8-dihydro-2H,7H-spiro[furo[2,3-e]isoindole-3,4′-piperidin]-7-yl)piperidine-2,6-dione] | < 0.05 | 60 to 80
4 | O=C1CC[C@H](N2Cc3c(ccc4c3OCC43CCN(Cc4cccc(-c5cnn(C[C@@H]6CCO6)c5)c4)CC3)C2=O)C(=O)N1 [Compound A274, (S)-3-(1′-(3-(1-(((S)-oxetan-2-yl)methyl)-1H-pyrazol-4-yl)benzyl)-6-oxo-6,8-dihydro-2H,7H-spiro[furo[2,3-e]isoindole-3,4′-piperidin]-7-yl)piperidine-2,6-dione] | 0.05 to 0.2 | 60 to 80
5 | O=C1CCC(N2Cc3c(ccc4c3OCC43CCN(Cc4cccc(Cn5ccnc5)c4)CC3)C2=O)C(=O)N1 (centres unmarked) [Compound A139, 3-(1′-(3-((1H-imidazol-1-yl)methyl)benzyl)-6-oxo-6,8-dihydro-2H,7H-spiro[furo[2,3-e]isoindole-3,4′-piperidin]-7-yl)piperidine-2,6-dione] | 0.2 to 0.5 | 60 to 80
6 | CCn1cc2ccc(CN3CCC4(CC3)COc3c4ccc4c3CN([C@H]3CCC(=O)NC3=O)C4=O)cc2n1 [Compound A299, (S)-3-(1′-((2-ethyl-2H-indazol-6-yl)methyl)-6-oxo-6,8-dihydro-2H,7H-spiro[furo[2,3-e]isoindole-3,4′-piperidin]-7-yl)piperidine-2,6-dione] | < 0.05 | 60 to 80
7 | COCCn1ncc2c(CN3CCC4(CC3)COc3c4ccc4c3CN(C3CCC(=O)NC3=O)C4=O)cccc21 (centres unmarked) [Compound A343, 3-(1′-((1-(2-methoxyethyl)-1H-indazol-4-yl)methyl)-6-oxo-6,8-dihydro-2H,7H-spiro[furo[2,3-e]isoindole-3,4′-piperidin]-7-yl)piperidine-2,6-dione] | > 0.5 | 40 to 60
8 | O=C1CCC(N2Cc3c(ccc4c3OCC43CCN(Cc4ccc5c(cnn5CCO)c4)CC3)C2=O)C(=O)N1 (centres unmarked) [Compound A344, 3-(1′-((1-(2-hydroxyethyl)-1H-indazol-5-yl)methyl)-6-oxo-6,8-dihydro-2H,7H-spiro[furo[2,3-e]isoindole-3,4′-piperidin]-7-yl)piperidine-2,6-dione] | > 0.5 | 40 to 60
9 | CCn1ncc2ccc(CN3CCC4(CC3)COc3c4ccc4c3CN([C@H]3CCC(=O)NC3=O)C4=O)cc21 [Compound A298, (S)-3-(1′-((1-ethyl-1H-indazol-6-yl)methyl)-6-oxo-6,8-dihydro-2H,7H-spiro[furo[2,3-e]isoindole-3,4′-piperidin]-7-yl)piperidine-2,6-dione] | 0.05 to 0.2 | 60 to 80
10 | O=C1CCC(N2Cc3c(ccc4c3OCC43CCN(Cc4ncccn4)CC3)C2=O)C(=O)N1 (centres unmarked) [Compound A206, 3-(6-oxo-1′-(pyrimidin-2-ylmethyl)-6,8-dihydro-2H,7H-spiro[furo[2,3-e]isoindole-3,4′-piperidin]-7-yl)piperidine-2,6-dione] | > 0.5 | < 40
